Results taken from ChEMBL document CHEMBL2069272, “Leishmanicidal activities and cytotoxicities of bisnaphthoquinone analogues and naphthol derivatives from Burman Diospyros burmanica” (Bioorg Med Chem, 2012).
Residues, ends and D or L forms follow the SMILES beside them. *: point of attachment. Cbz = O=C(OCc1ccccc1)*

Legend:
[1] = Selectivity index, ratio of IC50 for mouse RAW264.7 cells to IC50 for Leishmania major promastigotes; assay type: toxicity, cell-based; conditions: RAW264.7 cells versus Leishmania major promastigotes, read-out: Ratio IC50
Leishmania major = assay: Antileishmanial activity against Leishmania major promastigotes incubated for 48 hrs by MTT assay; assay type: functional, organism-based
[2] = Toxicity against mouse RAW264.7 cells by XTT assay; assay type: cell-based

SMILES	selectivity ratio [1]	IC50 (Leishmania major) [µM]	IC50 [2] [µM]
COc1cc(C)cc2c1C(=O)C=C(c1c(C)cc3ccc(O)c(OC)c3c1O)C2=O [BURMANIN B]	172	0.18	31
COc1cc(C)cc2c1C(=O)C=C(C1=C(C)C(=O)c3ccc(O)c(OC)c3C1=O)C2=O [BURMANIN A]	453	0.053	24
C[C@@H]1[C@H](O)[C@@H](C)/C=C/C=C/C=C/C=C/C=C/C=C/C=C/[C@H](O[C@@H]2O[C@H](C)[C@@H](O)[C@H](N)[C@@H]2O)C[C@@H]2O[C@](O)(C[C@@H](O)C[C@@H](O)[C@H](O)CC[C@@H](O)C[C@@H](O)CC(=O)O[C@H]1C)C[C@H](O)[C@H]2C(=O)O [AMPHOTERICIN B]		0.035	
COc1cccc2cc(C=O)cc(O)c12		> 100	> 100
COc1c(C)cc2cccc(OC)c2c1O	> 2.22	45	> 100
COc1cc(C)cc2c1C(=O)C=C(c1c(C)c(OC)c3ccc(O)c(OC)c3c1O)C2=O [BURMANIN C]	147	0.15	22
COc1ccc(OC)c2c1C(=O)C=C(C)C2=O			> 100
COc1cccc2c1C(=O)C=C(C)C2=O	13.6	3.3	45
COc1c(O)ccc2c1C(=O)C(C)=CC2=O	1.03	93	96
COc1cccc2cc(C)cc(O)c12	> 2	50	> 100
COc1ccc(OC)c2c(O)cc(C)cc12	> 2.63	38	> 100
COc1cccc2c1C(=O)C(O)=C(C)C2=O		> 100	> 100
COc1c(C)cc(O)c2c(OC)cccc12		> 100	> 100
CC(C)C[C@@H](C=O)NC(=O)[C@H](CC(C)C)NC(=O)[C@H](CC(C)C)NC(=O)OCc1ccccc1 [MG-132] (Cbz-Leu-Leu-Leu-aldehyde)			0.63
